Results from patent US20100041669A1, “4-(HETEROCYCLYL)ALKYL-N-(ARYLSULFONYL)INDOLE COMPOUNDS AND THEIR USE AS 5-HT6 LIGANDS” (priority 2007, published 2010).
Structures can show the parent of a compound that is named as a salt.

Legend:
human 5-HT6 receptor = target: T1, human 5-HT6 receptor (Homo sapiens, UniProt P50406); assay: Binding assay for human 5-HT6 receptor ([3H]LSD radioligand); conditions: human recombinant receptor, [3H]LSD 1.5 nM, 60 minutes at 37° C.; read-out: Radiogland binding data at 5-HT6 R (h) Ki
T1 construct: expressed in transfected cells; host or cells: HEK293
T1 sequence (P50406 whole entry): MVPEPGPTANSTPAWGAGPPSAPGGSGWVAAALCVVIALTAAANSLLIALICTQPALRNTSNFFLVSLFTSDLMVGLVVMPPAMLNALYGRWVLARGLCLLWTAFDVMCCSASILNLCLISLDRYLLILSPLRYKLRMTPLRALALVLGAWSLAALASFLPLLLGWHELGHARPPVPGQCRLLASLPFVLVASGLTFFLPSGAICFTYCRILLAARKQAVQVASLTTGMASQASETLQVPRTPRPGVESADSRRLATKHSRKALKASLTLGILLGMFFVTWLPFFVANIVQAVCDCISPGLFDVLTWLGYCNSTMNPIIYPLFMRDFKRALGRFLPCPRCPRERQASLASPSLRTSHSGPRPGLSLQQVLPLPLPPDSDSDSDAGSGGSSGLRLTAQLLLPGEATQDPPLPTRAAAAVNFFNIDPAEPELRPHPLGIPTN
Protocol: Binding Assay for Human 5-HT6 Receptor
Receptor source: Human recombinant expressed in FEK293 cells
Radioligand: [^3H]LSD (60-80 Ci/mmol)
Final ligand concentration —[1.5 nM]
Non-specific determinant: Methiothepin mesylate —[0.1 μM]
Reference compound: Methiothepin mesylate
Positive control: Methiothepin mesylate
Reactions were carried out in 50 μM TRIS-HCl (pH 7.4) containing 10 μM MgCl2, 0.5 mM EDTA for 60 minutes at 37° C. The reaction was terminated by rapid vacuum filtration onto glass fiber filters. Radioactivity trapped onto the filters was determined and compared to control values in order to ascertain any interactions of test compound(s) with the cloned serotonin 5-HT6 binding site.

[1] = Pouzet et al. 2002; cited from earlier work
5-HT6 receptor = conditions: literature; cited from earlier work

Ki (human 5-HT6 receptor) [nM]	Structure (SMILES)	other results
6.51	CN1CCN(Cc2cccc3c2ccn3S(=O)(=O)c2ccccc2)CC1 [Compound 1, 1-Benzenesulfonyl-4-(4-methylpiperazin-1-ylmethyl)-1H-indole]	–
23.4	CN1CCN(Cc2cccc3c2ccn3S(=O)(=O)c2ccc(Br)cc2)CC1 [Compound 2, 1-(4-Bromobenzenesulfonyl)-4-(4-methylpiperazin-1-ylmethyl)-1H-indole]	–
8.58	COc1ccc(S(=O)(=O)n2ccc3c(CN4CCN(C)CC4)cccc32)c(Br)c1 [Compound 3, 1-(2-Bromo-4-methoxybenzenesulfonyl)-4-(4-methylpiperazin-1-ylmethyl)-1H-indole]	–
11.1	CC(C)c1ccc(S(=O)(=O)n2ccc3c(CN4CCN(C)CC4)cccc32)cc1 [Compound 4, 1-[4-(1-Methylethyl)benzenesulfonyl]-4-(4-methylpiperazin-1-ylmethyl)-1H-indole]	–
7.92	Cc1ccc(S(=O)(=O)n2ccc3c(CN4CCN(C)CC4)cccc32)cc1 [Compound 5, 1-(4-Methylbenzenesulfonyl)-4-(4-methylpiperazin-1-ylmethyl)-1H-indole]	–
1.43	CN1CCN(Cc2cccc3c2ccn3S(=O)(=O)c2ccccc2Br)CC1 [Compound 6, 1-(2-Bromobenzenesulfonyl)-4-(4-methylpiperazin-1-ylmethyl)-1H-indole]	–
9.89	CN1CCN(Cc2cccc3c2ccn3S(=O)(=O)c2ccc(F)cc2)CC1 [Compound 7, 1-(4-Fluorobenzenesulfonyl)-4-(4-methylpiperazin-1-ylmethyl)-1H-indole]	–
29.1	COc1ccc(S(=O)(=O)n2ccc3c(CN4CCN(C)CC4)cccc32)cc1 [Compound 8, 1-(4-Methoxybenzenesulfonyl)-4-(4-methylpiperazin-1-ylmethyl)-1H-indole]	–
30.2	CN1CCN(Cc2cccc3c2c(Br)cn3S(=O)(=O)c2ccccc2)CC1 [Compound 18, 1-Benzenesulfonyl-3-bromo-4-(4-methylpiperazin-1-ylmethyl)-1H-indole]	–
278	CC(C)c1ccc(S(=O)(=O)n2cc(Br)c3c(CN4CCN(C)CC4)cccc32)cc1 [Compound 20, 3-Bromo-1-[4-(1-Methylethyl)benzenesulfonyl]-4-(4-methylpiperazin-1-ylmethyl)-1H-indole]	–
122	CN1CCN(Cc2cccc3c2c(Br)cn3S(=O)(=O)c2ccc(F)cc2)CC1 [Compound 22, 3-Bromo-1-(4-fluorobenzenesulfonyl)-4-(4-methylpiperazin-1-ylmethyl)-1H-indole]	–
75.3	CN1CCN(Cc2cccc3c2c(Br)cn3S(=O)(=O)c2cccc(Cl)c2)CC1 [Compound 24, 3-Bromo-1-(3-chlorobenzenesulfonyl)-4-(4-methylpiperazin-1-ylmethyl)-1H-indole]	–
97.6	CN1CCN(Cc2cccc3c2c(Br)cn3S(=O)(=O)c2cccc3ccccc23)CC1 [Compound 25, 3-Bromo-1-(1-naphthylsulfonyl)-4-(4-methylpiperazin-1-ylmethyl)-1H-indole]	–
53.6	CN1CCN(Cc2cccc3c2c(Cl)cn3S(=O)(=O)c2ccccc2)CC1 [Compound 27, 3-Chloro-1-benzenesulfonyl-4-(4-methylpiperazin-1-ylmethyl)-1H-indole]	–
99.7	CC(C)c1ccc(S(=O)(=O)n2cc(Cl)c3c(CN4CCN(C)CC4)cccc32)cc1 [Compound 28, 3-Chloro-1-[4-(1-methylethyl)benzenesulfonyl]-4-(4-methylpiperazin-1-ylmethyl)-1H-indole]	–
222	Cc1ccc(S(=O)(=O)n2cc(Cl)c3c(CN4CCN(C)CC4)cccc32)cc1 [Compound 29, 3-Chloro-1-(4-methylbenzenesulfonyl)-4-(4-methylpiperazin-1-ylmethyl)-1H-indole]	–
90.7	CN1CCN(Cc2cccc3c2c(Cl)cn3S(=O)(=O)c2ccccc2Br)CC1 [Compound 30, 3-Chloro-1-(2-bromobenzenesulfonyl)-4-(4-methylpiperazin-1-ylmethyl)-1H-indole]	–
27.1	CN1CCN(Cc2cccc3c2c(Cl)cn3S(=O)(=O)c2cccc(Cl)c2)CC1 [Compound 33, 3-Chloro-1-(3-chlorobenzenesulfonyl)-4-(4-methylpiperazin-1-ylmethyl)-1H-indole]	–
165	CN1CCN(Cc2cccc3c2c(Cl)cn3S(=O)(=O)c2cccc3ccccc23)CC1 [Compound 34, 3-Chloro-1-(1-naphthylsulfonyl)-4-(4-methylpiperazin-1-ylmethyl)-1H-indole]	–
0.94	O=S(=O)(c1ccccc1Br)n1ccc2c(CN3CCNCC3)cccc21 [Compound 36, 1-(2-Bromobenzenesulfonyl)-4-(piperazin-1-ylmethyl)-1H-indole dihydrochloride]	–
7.84	O=S(=O)(c1ccccc1)n1ccc2c(CN3CCNCC3)cccc21 [Compound 37, 1-Benzenesulfonyl-4-(piperazin-1-ylmethyl)-1H-indole dihydrochloride]	–
10.7	Cc1ccc(S(=O)(=O)n2ccc3c(CN4CCNCC4)cccc32)cc1 [Compound 38, 1-(4-Methylbenzenesulfonyl-4-(piperazin-1-ylmethyl)-1H-indoledihydrochloride]	–
4.82	CN1CCN(Cc2cccc3c2ccn3S(=O)(=O)c2cccc3ccccc23)CC1 [Compound 39, 1-Naphthylsulfonyl-4-(4-methylpiperazin-1-ylmethyl)-1H-indole]	–
13.1	CN1CCN(Cc2cccc3c2ccn3S(=O)(=O)c2cccc(Cl)c2)CC1 [Compound 41, 1-(3-chlorobenzenesulfonyl)-4-(4-methylpiperazin-1-ylmethyl)-1H-indole]	–
–	COc1ccc(NS(=O)(=O)c2sc3ccc(Cl)cc3c2C)cc1N1CCNCC1 [SB-271046, 5-Chloro-N-(4-methoxy-3-piperazin-1-ylphenyl)-3-methyl-2-benzothiophenesulfonamide]	activity in animal tests related to positive or negative symptoms of schizophrenia [1]: inactive
–	CN(C)CCC=C1c2ccccc2CCc2ccccc21 [amitriptyline]	affinity for the 5-HT6 receptor (5-HT6 receptor): high affinity
–	CN1CCN2c3ccccc3Cc3ccccc3C2C1 (stereo not drawn) [mianserin]	affinity for the 5-HT6 receptor (5-HT6 receptor): high affinity
